Where a name gives a salt, the structure may show the parent alone.

The target in the assay is EZH2 within the PRC2 complex (Homo sapiens (Human), UniProt Q15910). The assay is described as follows: EZH2 methyltransferase SPA, biotinylated histone H3K27 peptide substrate (Assay Protocol 2). Format: biochemical. To be noted: 3H-SAM, ≦10 nM approaches limit of detection. The procedure: Compounds contained herein were evaluated for their ability to inhibit the methyltransferase activity of EZH2 within the PRC2 complex. Human PRC2 complex was prepared by co-expressing each of the 5 member proteins (FLAG-EZH2, EED, SUZ12, RbAp48, AEBP2) in Sf9 cells followed by co-purification. Enzyme activity was measured in a scintillation proximity assay (SPA) where a tritiated methyl group is transferred from 3H-SAM to a lysine residue on a biotinylated, unmethylated peptide substrate derived from histone H3. The peptides were captured on streptavidin-coated SPA beads and the resulting signal was read on a ViewLux plate reader.
EZH2 within the PRC2 complex, sequence (Q15910 whole entry): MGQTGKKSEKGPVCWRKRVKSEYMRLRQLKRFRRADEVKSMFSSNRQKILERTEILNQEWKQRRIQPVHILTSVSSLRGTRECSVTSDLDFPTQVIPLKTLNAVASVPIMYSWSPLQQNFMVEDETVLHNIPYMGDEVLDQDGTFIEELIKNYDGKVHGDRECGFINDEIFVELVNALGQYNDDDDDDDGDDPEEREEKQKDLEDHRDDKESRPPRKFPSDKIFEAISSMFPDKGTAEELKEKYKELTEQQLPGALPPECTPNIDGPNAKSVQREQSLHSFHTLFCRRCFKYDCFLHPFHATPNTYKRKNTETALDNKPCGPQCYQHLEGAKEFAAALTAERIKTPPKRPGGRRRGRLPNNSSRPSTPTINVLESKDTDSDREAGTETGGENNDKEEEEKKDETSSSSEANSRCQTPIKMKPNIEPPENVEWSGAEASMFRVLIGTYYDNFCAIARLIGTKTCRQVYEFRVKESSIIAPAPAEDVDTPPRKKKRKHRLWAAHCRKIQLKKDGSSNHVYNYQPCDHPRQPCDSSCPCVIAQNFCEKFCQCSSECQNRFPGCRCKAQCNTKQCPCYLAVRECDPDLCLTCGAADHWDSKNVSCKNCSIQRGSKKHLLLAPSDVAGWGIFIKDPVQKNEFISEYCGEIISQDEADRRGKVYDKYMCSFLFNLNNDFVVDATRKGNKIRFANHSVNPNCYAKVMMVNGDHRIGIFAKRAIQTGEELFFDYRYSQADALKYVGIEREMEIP
EZH2 within the PRC2 complex, sequence (O75530 whole entry partner): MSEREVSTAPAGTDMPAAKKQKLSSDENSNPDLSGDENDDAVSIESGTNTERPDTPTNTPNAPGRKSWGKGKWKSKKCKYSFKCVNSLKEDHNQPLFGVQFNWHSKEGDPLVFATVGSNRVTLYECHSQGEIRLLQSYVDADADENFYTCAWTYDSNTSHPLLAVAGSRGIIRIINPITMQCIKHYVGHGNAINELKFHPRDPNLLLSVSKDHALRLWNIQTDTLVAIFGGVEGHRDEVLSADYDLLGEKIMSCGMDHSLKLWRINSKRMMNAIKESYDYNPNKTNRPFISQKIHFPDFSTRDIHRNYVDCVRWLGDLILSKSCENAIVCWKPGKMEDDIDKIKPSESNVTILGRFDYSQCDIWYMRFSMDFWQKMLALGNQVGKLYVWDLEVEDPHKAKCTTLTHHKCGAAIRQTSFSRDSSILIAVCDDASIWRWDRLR
EZH2 within the PRC2 complex, sequence (Q15022 whole entry partner): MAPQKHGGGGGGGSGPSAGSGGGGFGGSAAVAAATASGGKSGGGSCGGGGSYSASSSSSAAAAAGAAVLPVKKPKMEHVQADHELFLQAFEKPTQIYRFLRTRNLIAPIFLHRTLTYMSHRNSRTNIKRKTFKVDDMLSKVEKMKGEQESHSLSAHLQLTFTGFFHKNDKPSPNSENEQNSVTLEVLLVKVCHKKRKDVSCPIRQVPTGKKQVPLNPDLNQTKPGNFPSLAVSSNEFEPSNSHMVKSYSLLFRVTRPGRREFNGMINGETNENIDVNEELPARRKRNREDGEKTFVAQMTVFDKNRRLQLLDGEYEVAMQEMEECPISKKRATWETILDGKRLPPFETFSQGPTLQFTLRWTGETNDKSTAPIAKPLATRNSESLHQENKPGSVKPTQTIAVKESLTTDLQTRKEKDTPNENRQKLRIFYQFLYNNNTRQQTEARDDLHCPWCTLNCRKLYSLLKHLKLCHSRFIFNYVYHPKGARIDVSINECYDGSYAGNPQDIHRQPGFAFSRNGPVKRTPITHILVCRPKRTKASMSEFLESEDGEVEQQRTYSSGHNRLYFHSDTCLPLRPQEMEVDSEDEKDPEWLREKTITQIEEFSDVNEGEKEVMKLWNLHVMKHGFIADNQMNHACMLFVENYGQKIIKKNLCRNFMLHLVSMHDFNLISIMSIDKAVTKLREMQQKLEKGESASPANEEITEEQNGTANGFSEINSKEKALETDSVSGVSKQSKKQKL
EZH2 within the PRC2 complex, sequence (Q09028 whole entry partner): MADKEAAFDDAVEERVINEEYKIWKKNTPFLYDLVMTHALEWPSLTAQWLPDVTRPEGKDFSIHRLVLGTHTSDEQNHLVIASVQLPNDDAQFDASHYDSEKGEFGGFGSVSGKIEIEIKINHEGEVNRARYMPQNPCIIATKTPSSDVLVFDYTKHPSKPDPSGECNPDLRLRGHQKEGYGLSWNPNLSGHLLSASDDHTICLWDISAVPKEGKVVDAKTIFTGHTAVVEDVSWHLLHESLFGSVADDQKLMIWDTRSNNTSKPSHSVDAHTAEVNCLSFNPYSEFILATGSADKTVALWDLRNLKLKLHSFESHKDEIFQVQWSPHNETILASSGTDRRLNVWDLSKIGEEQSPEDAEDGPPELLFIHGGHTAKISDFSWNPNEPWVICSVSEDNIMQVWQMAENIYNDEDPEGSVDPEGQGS
EZH2 within the PRC2 complex, sequence (Q6ZN18 whole entry partner): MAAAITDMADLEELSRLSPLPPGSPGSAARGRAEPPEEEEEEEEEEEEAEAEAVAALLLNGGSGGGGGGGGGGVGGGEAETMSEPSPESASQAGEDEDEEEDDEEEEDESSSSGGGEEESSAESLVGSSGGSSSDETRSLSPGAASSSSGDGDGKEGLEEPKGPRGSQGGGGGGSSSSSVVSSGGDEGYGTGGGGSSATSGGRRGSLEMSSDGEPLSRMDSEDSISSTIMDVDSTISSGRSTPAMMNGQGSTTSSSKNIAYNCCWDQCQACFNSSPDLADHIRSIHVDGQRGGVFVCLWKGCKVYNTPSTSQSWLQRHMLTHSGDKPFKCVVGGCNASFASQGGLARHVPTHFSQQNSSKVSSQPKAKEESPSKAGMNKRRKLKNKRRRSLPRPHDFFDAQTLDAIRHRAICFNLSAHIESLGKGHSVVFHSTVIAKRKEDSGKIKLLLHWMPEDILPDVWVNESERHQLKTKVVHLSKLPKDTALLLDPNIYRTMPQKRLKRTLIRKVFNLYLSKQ
Part A. Compound Preparation
• 4. Prepare 10 mM stock of compounds from solid in 100% DMSO. • 5. Set up an 11-point serial dilution (1:4 dilution, top concentration 10 mM) in 100% DMSO for each test compound in a 384 well plate leaving columns 6 and 18 for DMSO controls. • 6. Dispense 10 nL of compound from the dilution plate into reaction plates (Corning, 384-well polystyrene NBS, Cat#3673). Part B. Reagent Preparation Prepare the following solutions: • 7. 1× Base Buffer, 50 mM Tris-HCl, pH 8, 2 mM MgCl2: Per 1 L of base buffer, combine 1 M Tris-HCl, pH 8 (50 mL), 1 M MgCl2 (2 mL), and distilled water (948 mL). • 8. 1× Assay Buffer: Per 10 mL of 1× Assay Buffer, combine 1× Base Buffer (9.96 mL), 1 M DTT (40 uL), and 10% Tween-20 (1 uL) to provide a final concentration of 50 mM Tris-HCl, pH 8, 2 mM MgCl2, 4 mM DTT, 0.001% Tween-20. • 9. 2× Enzyme Solution: Per 10 mL of 2× Enzyme Solution, combine 1× Assay Buffer (9.99 mL) and 3.24 uM EZH2 5 member complex (6.17 uL) to provide a final enzyme concentration of 1 nM. • 10. SPA Bead Solution: Per 1 mL of SPA Bead Solution, combine Streptavidin coated SPA beads (PerkinElmer, Cat#RPNQ0261, 40 mg) and 1× Assay Buffer (1 mL) to provide a working concentration of 40 mg/mL. • 11. 2× Substrate Solution: Per 10 mL of 2× Substrate Solution, combine 40 mg/mL SPA Bead Solution (375 uL), 1 mM biotinylated histone H3K27 peptide (200 uL), 12.5 uM 3H-SAM (240 uL; 1 mCi/mL), 1 mM cold SAM (57 uL), and 1× Assay Buffer (9.13 mL) to provide a final concentration of 0.75 mg/mL SPA Bead Solution, 10 uM biotinylated histone H3K27 peptide, 0.15 uM 3H-SAM (˜12 uCi/mL 3H-SAM), and 2.85 uM cold SAM. • 12. 2.67× Quench Solution: Per 10 mL of 2.67× Quench Solution, combine 1× Assay Buffer (9.73 mL) and 10 mM cold SAM (267 uL) to provide a final concentration of 100 uM cold SAM. Part C. Assay Reaction in 384-well Grenier Bio-One Plates Compound Addition • 3. Stamp 10 nL/well of 1000× Compound to test wells (as noted above). • 4. Stamp 10 nL/well of 100% DMSO to columns 6 & 18 (high and low controls, respectively). Assay • 10. Dispense 5 uL/well of 1× Assay Buffer to column 18 (low control reactions). • 11. Dispense 5 uL/well of 2× Substrate Solution to columns 1-24 (note: substrate solution should be mixed to ensure homogeneous bead suspension before dispensing into matrix reservoir). • 12. Dispense 5 uL/well of 2× Enzyme Solution to columns 1-17, 19-24. • 13. Incubate the reaction for 60 min at room temperature. Quench • 5. Dispense 6 uL/well of the 2.67× Quench Solution to columns 1-24. • 6. Seal assay plates and spin for ˜1 min at 500 rpm. • 7. Dark adapt plates in the ViewLux instrument for 15-60 min. Read plates • 2. Read the assay plates on the Viewlux Plate Reader utilizing the 613 nm emission filter or clear filter (300 s exposure). Reagent addition can be done manually or with automated liquid handler. Results
Percent inhibition was calculated relative to the DMSO control for each compound concentration and the resulting values were fit using standard IC50 fitting parameters within the ABASE data fitting software package.
Turning to `Cc1cc(C)c(CNC(=O)c2csc(N3CCCC3C3CCNCC3)c2C)c(=O)[nH]1` (stereo not shown) [Example 68, N-((4,6-dimethyl-2-oxo-1,2-dihydropyridin-3-yl)methyl)-4-methyl-5-(2-(piperidin-4-yl)pyrrolidin-1-yl)thiophene-3-carboxamide hydrochloride], the 50% inhibitory concentration (IC50) was 79 nM.
As for `CCN(c1sc(N2CCN(C)CC2)c(C(=O)NCc2c(C)cc(C)[nH]c2=O)c1C)C1CCOCC1` [Example 56, N-((4,6-Dimethyl-2-oxo-1,2-dihydropyridin-3-yl)methyl)-5-(ethyl(tetrahydro-2H-pyran-4-yl)amino)-4-methyl-2-(4-methylpiperazin-1-yl)thiophene-3-carboxamide hydrochloride], the figure is 501 nM; as for `C/C=C(/CCCN1CCN(C)CC1)c1scc(C(=O)NCc2c(C)cc(C)[nH]c2=O)c1C` [Example 72, (Z)—N-((4,6-Dimethyl-2-oxo-1,2-dihydropyridin-3-yl)methyl)-4-methyl-5-(6-(4-methylpiperazin-1-yl)hex-2-en-3-yl)thiophene-3-carboxamide], 251 nM; as for `CC[C@H](c1scc(C(=O)NCc2c(C)cc(C)[nH]c2=O)c1C)N1CCC(N(C)C)CC1` [Example 42, (R)-(+)-N-((4,6-dimethyl-2-oxo-1,2-dihydropyridin-3-yl)methyl)-5-(1-(4-(dimethylamino)piperidin-1-yl)propyl)-4-methylthiophene-3-carboxamide], 316 nM.
As for `C/C=C(/CCN1CCOCC1)c1scc(C(=O)NCc2c(C)cc(C)[nH]c2=O)c1C` [Example 71, (Z)—N-((4,6-Dimethyl-2-oxo-1,2-dihydropyridin-3-yl)methyl)-4-methyl-5-(5-morpholinopent-2-en-3-yl)thiophene-3-carboxamide], the figure is 1000 nM; as for `CCN(c1sc(-c2ccoc2)c(C(=O)NCc2c(C)cc(C)[nH]c2=O)c1C)C1CCOCC1` [Example 75, N-((4,6-dimethyl-2-oxo-1,2-dihydropyridin-3-yl)methyl)-5-(ethyl(tetrahydro-2H-pyran-4-yl)amino)-2-(furan-3-yl)-4-methylthiophene-3-carboxamide], 25 nM; as for `CCC(c1scc(C(=O)NCc2c(C)cc(C)[nH]c2=O)c1C)[C@H]1CC[C@@H](N(C)C)CC1` (single isomer, unassigned; (-)) [Example 47, (−)-N-((4,6-Dimethyl-2-oxo-1,2-dihydropyridin-3-yl)methyl)-5-(1-((cis)-4-(dimethylamino)cyclohexyl)propyl)-4-methylthiophene-3-carboxamide], 13 nM.
As for `CCN(c1sc(-c2ccoc2)c(C(=O)NCc2c(C)cc(C)[nH]c2=O)c1C)[C@H]1CC[C@H](N(C)C)CC1` [Example 77, N-((4,6-dimethyl-2-oxo-1,2-dihydropyridin-3-yl)methyl)-5-(((trans)-4-(dimethylamino)cyclohexyl)(ethyl)amino)-2-(furan-3-yl)-4-methylthiophene-3-carboxamide], the figure is 32 nM; as for `CCN(c1sc(C2CCN(C(=O)OC(C)(C)C)CC2)c(C(=O)NCc2c(C)cc(C)[nH]c2=O)c1C)C1CCOCC1` [Example 59, tert-Butyl 4-(3-(((4,6-dimethyl-2-oxo-1,2-dihydropyridin-3-yl)methyl)carbamoyl)-5-(ethyl(tetrahydro-2H-pyran-4-yl)amino)-4-methylthiophen-2-yl)piperidine-1-carboxylate], 316 nM.
`CCN(c1sc(C2CCN(S(C)(=O)=O)CC2)c(C(=O)NCc2c(C)cc(C)[nH]c2=O)c1C)C1CCOCC1` [Example 63, N-((4,6-Dimethyl-2-oxo-1,2-dihydropyridin-3-yl)methyl)-5-(ethyl(tetrahydro-2H-pyran-4-yl)amino)-4-methyl-2-(1-(methylsulfonyl)piperidin-4-yl)thiophene-3-carboxamide] registered an IC50 of 501 nM.
Compound `Cc1cc(C)c(CNC(=O)c2csc(C(O)[C@H]3CC[C@H](N(C)C)CC3)c2C)c(=O)[nH]1` (stereo partly drawn) [Example 38, N-((4,6-dimethyl-2-oxo-1,2-dihydropyridin-3-yl)methyl)-5-(((trans)-4-(dimethylamino)cyclohexyl)(hydroxy)methyl)-4-methylthiophene-3-carboxamide] came in with an IC50 of 158 nM.
As for `Cc1cc(C)c(CNC(=O)c2csc(C(O)[C@H]3CC[C@H](N)CC3)c2C)c(=O)[nH]1` (stereo partly drawn) [Example 37, 5-(((trans)-4-Aminocyclohexyl)(hydroxy)methyl)-N-((4,6-dimethyl-2-oxo-1,2-dihydropyridin-3-yl)methyl)-4-methylthiophene-3-carboxamide], the figure is 501 nM; as for `Cc1cc(C)c(CNC(=O)c2csc(N3CCCCC3C3CCNCC3)c2C)c(=O)[nH]1` (stereo not shown) [Example 69, 5-([2,4′-Bipiperidin]-1-yl)-N-((4,6-dimethyl-2-oxo-1,2-dihydropyridin-3-yl)methyl)-4-methylthiophene-3-carboxamide hydrochloride], 501 nM; as for `CCN(c1sc(C2CCN(C(=O)OC(C)(C)C)C2)c(C(=O)NCc2c(C)cc(C)[nH]c2=O)c1C)C1CCOCC1` (stereo not shown) [Example 57, tert-Butyl 3-(3-(((4,6-dimethyl-2-oxo-1,2-dihydropyridin-3-yl)methyl)carbamoyl)-5-(ethyl(tetrahydro-2H-pyran-4-yl)amino)-4-methylthiophen-2-yl)pyrrolidine-1-carboxylate], 200 nM.
Compound `CCC(c1scc(C(=O)NCc2c(C)cc(C)[nH]c2=O)c1C)C1CCNCC1` (stereo not shown) [Example 40, N-((4,6-Dimethyl-2-oxo-1,2-dihydropyridin-3-yl)methyl)-4-methyl-5-(1-(piperidin-4-yl)propyl)thiophene-3-carboxamide] showed an IC50 of 20 nM.
As to `CCN(C)[C@H]1CC[C@H](N(CC)c2scc(C(=O)NCc3c(C)cc(C)[nH]c3=O)c2C)CC1` [Example 64, N-((4,6-dimethyl-2-oxo-1,2-dihydropyridin-3-yl)methyl)-5-(ethyl((trans)-4-(ethyl(methyl)amino)cyclohexyl)amino)-4-methylthiophene-3-carboxamide], the half-maximal inhibitory concentration (IC50) stood at 16 nM.
As for `CCC(c1scc(C(=O)NCc2c(C)cc(C)[nH]c2=O)c1C)[C@H]1CC[C@@H](N(C)C)CC1` (single isomer, unassigned; (+)) [Example 46, (+)-N-((4,6-Dimethyl-2-oxo-1,2-dihydropyridin-3-yl)methyl)-5-(1-((cis)-4-(dimethylamino)cyclohexyl)propyl)-4-methylthiophene-3-carboxamide], the figure is 316 nM; as for `CCC(CCCN1CCN(C)CC1)c1scc(C(=O)NCc2c(C)cc(C)[nH]c2=O)c1C` (stereo not shown) [Example 73, N-((4,6-Dimethyl-2-oxo-1,2-dihydropyridin-3-yl)methyl)-4-methyl-5-(6-(4-methylpiperazin-1-yl)hexan-3-yl)thiophene-3-carboxamide], 126 nM; as for `CCOC(=O)N(CC)c1scc(C(=O)NCc2c(C)cc(C)[nH]c2=O)c1C` [Example 65, Ethyl (4-(((4,6-dimethyl-2-oxo-1,2-dihydropyridin-3-yl)methyl)carbamoyl)-3-methylthiophen-2-yl)(ethyl)carbamate], 200 nM.

What is called IC50 is the concentration that gives 50% inhibition. Low readings indicate inhibition by little substance, high ones a need for much substance.

These data come from US9505745B2, “Enhancer of zeste homolog 2 inhibitors” (GlaxoSmithKline Intellectual Property (No.2) Limited, priority 2013, dated 2016).
